# Tests used:
# Plasmopara viticola = assay: Test Example G: Downy mildew on vine; settings: for Test G control value: 7 to 10 days after inoculation; for Test G control value class: Downy mildew on vine (Neomuscat), 2.5 ml/pot, assessed 7 to 10 days after inoculation
# [1] = tested on: Colletotrichum orbiculare; assay: Test Example H: Anthracnose on cucumber; settings: for Test H control value: 6 to 10 days after inoculation; for Test H control value class: Anthracnose on cucumber (Sagami Hanjiro), 2.5 ml/pot, assessed 6 to 10 days after inoculation
# Alternaia brassicicola = assay: Test Example C: Alternaria sooty spot on cabbage; format: in vivo; settings: for Test C control value class: class of control value
# Source text: Seeds of a test plant (cabbage variety: Shikidori) were planted and cultivated until the cotyledons extended.
# <Control Value> Control value=100{1−(n/3)}
# Magnaporthe grisea = assay: whole plant or invertebrate; format: in vivo; settings: for Test A control value class: class of control value
# [2] = tested on: Blumeria graminis f. sp. hordei; assay: Test Example D: Powdery mildew on barley; settings: for Test D control value class: class of control value
# Puccinia recondita = assay: Test Example E: Brown rust on wheat; format: in vivo; settings: for Test E control value class: class of control value
# Botrytis cinerea = assay: Test Example B: Gray mold on tomato; settings: for Test B control value class: class of control value
# Phytophthora infestans = assay: whole plant or invertebrate; format: in vivo; settings: for Test F control value class: class of control value
# [3] = Downy mildew on vine, 250 ppm spray
# [4] = Anthracnose on cucumber, 250 ppm spray
# [5] = Alternaria sooty spot on cabbage, control value class
# [6] = Blast on rice, control value class
# [7] = Powdery mildew on barley, control value class
# [8] = Brown rust on wheat, control value class
# [9] = Gray mold on tomato, control value class
# [10] = Late blight on tomato, control value class
# [11] = Alternaria sooty spot on cabbage
# [12] = 250 ppm drug solution sprayed (2.5 ml/pot), grape Neomuscat
# [13] = 250 ppm drug solution sprayed (2.5 ml/pot), cucumber Sagami Hanjiro
# [14] = 250 ppm drug solution sprayed on test plant
Structure (SMILES),Test G control value class (Plasmopara viticola; 250 ppm spray),Test H control value class ([1]; 250 ppm spray),Test C control value class (Alternaia brassicicola; [11]),Test A control value class (Magnaporthe grisea; Blast on rice),Test D control value class ([2]; Powdery mildew on barley),Test E control value class (Puccinia recondita; Brown rust on wheat),Test B control value class (Botrytis cinerea; Gray mold on tomato),Test F control value class (Phytophthora infestans; Late blight on tomato),Test G control value (Plasmopara viticola; [12]),"Test H control value [1, 13]",Test C control value (Alternaia brassicicola; [14]),Test A control value (Magnaporthe grisea; [14]),"Test D control value [2, 14]",Test E control value (Puccinia recondita; [14]),Test B control value (Botrytis cinerea; [14]),Test F control value (Phytophthora infestans; [14]),further results
CCCOC(C)(c1cc(Cl)c(=O)n(CC)c1-c1c(F)cc(F)cc1F)C(C)C (centres unmarked) [compound 229],–,–,–,–,–,–,–,–,–,–,–,–,–,–,–,–,"Test G control value (Plasmopara viticola; [3]): H (more than 50% control value); Test H control value [1, 4]: H (more than 50% control value); Test C control value (Alternaia brassicicola; [5]): H (more than 50% control value); Test A control value (Magnaporthe grisea; [6]): H (more than 50% control value); Test D control value [2, 7]: H (more than 50% control value); Test E control value (Puccinia recondita; [8]): H (more than 50% control value); Test B control value (Botrytis cinerea; [9]): H (more than 50% control value); Test F control value (Phytophthora infestans; [10]): L (50% or less control value)"
CCOc1cc(F)c(-c2c(C(C)(C)C)cc(Cl)c(=O)n2CC)c(F)c1 [compound 75],L (50% or less control value),H (more than 50% control value),H (more than 50% control value),L (50% or less control value),L (50% or less control value),H (more than 50% control value),H (more than 50% control value),L (50% or less control value),–,–,–,–,–,–,–,–,–
CCCc1cc(I)c(=O)n(CCC)c1-c1c(F)cc(F)cc1F [compound 441],–,–,–,–,–,–,–,–,L (50% or less control value),H (more than 50% control value),L (50% or less control value),L (50% or less control value),L (50% or less control value),L (50% or less control value),L (50% or less control value),L (50% or less control value),–
CCn1c(-c2c(F)cc(F)cc2F)c(C(Cl)=CCl)cc(Cl)c1=O [compound 309],–,–,–,–,–,–,–,–,–,–,–,–,–,–,–,–,"Test G control value (Plasmopara viticola; [3]): H (more than 50% control value); Test H control value [1, 4]: H (more than 50% control value); Test C control value (Alternaia brassicicola; [5]): H (more than 50% control value); Test A control value (Magnaporthe grisea; [6]): H (more than 50% control value); Test D control value [2, 7]: H (more than 50% control value); Test E control value (Puccinia recondita; [8]): H (more than 50% control value); Test B control value (Botrytis cinerea; [9]): H (more than 50% control value); Test F control value (Phytophthora infestans; [10]): L (50% or less control value)"
CCn1c(-c2ccc(F)cc2C)c(CC(C)C)ccc1=O [compound 202],–,–,–,–,–,–,–,–,–,–,–,–,–,–,–,–,"Test G control value (Plasmopara viticola; [3]): H (more than 50% control value); Test H control value [1, 4]: L (50% or less control value); Test C control value (Alternaia brassicicola; [5]): L (50% or less control value); Test A control value (Magnaporthe grisea; [6]): H (more than 50% control value); Test D control value [2, 7]: H (more than 50% control value); Test E control value (Puccinia recondita; [8]): H (more than 50% control value); Test B control value (Botrytis cinerea; [9]): H (more than 50% control value); Test F control value (Phytophthora infestans; [10]): L (50% or less control value)"
CCn1c(-c2ccc(F)cc2Br)c(CC(C)C)ccc1=O [compound 199],–,–,–,–,–,–,–,–,–,–,–,–,–,–,–,–,"Test G control value (Plasmopara viticola; [3]): H (more than 50% control value); Test H control value [1, 4]: H (more than 50% control value); Test C control value (Alternaia brassicicola; [5]): H (more than 50% control value); Test A control value (Magnaporthe grisea; [6]): H (more than 50% control value); Test D control value [2, 7]: H (more than 50% control value); Test E control value (Puccinia recondita; [8]): H (more than 50% control value); Test B control value (Botrytis cinerea; [9]): H (more than 50% control value); Test F control value (Phytophthora infestans; [10]): H (more than 50% control value)"
CCOC(c1cc(Cl)c(=O)n(C)c1-c1c(F)cc(F)cc1F)C(C)C (centres unmarked) [compound 497],–,–,–,–,–,–,–,–,H (more than 50% control value),H (more than 50% control value),H (more than 50% control value),H (more than 50% control value),H (more than 50% control value),H (more than 50% control value),H (more than 50% control value),L (50% or less control value),–
Cn1c(-c2c(F)cc(F)cc2F)c(C(C)(C)C)ccc1=O [compound 68],L (50% or less control value),H (more than 50% control value),H (more than 50% control value),L (50% or less control value),L (50% or less control value),H (more than 50% control value),L (50% or less control value),L (50% or less control value),–,–,–,–,–,–,–,–,–
CCCOc1ccc(-c2c(CC(C)C)cc(Cl)c(=O)n2CC)c(F)c1 [compound 126],H (more than 50% control value),H (more than 50% control value),H (more than 50% control value),L (50% or less control value),H (more than 50% control value),H (more than 50% control value),H (more than 50% control value),L (50% or less control value),–,–,–,–,–,–,–,–,–
CCn1c(-c2c(F)cc(F)cc2F)c(C(=O)C(C)(C)C)cc(Cl)c1=O [compound 173],L (50% or less control value),H (more than 50% control value),H (more than 50% control value),L (50% or less control value),H (more than 50% control value),H (more than 50% control value),H (more than 50% control value),L (50% or less control value),–,–,–,–,–,–,–,–,–
Cn1c(-c2c(F)cc(F)cc2F)c(C(C)(C)C)cc(Cl)c1=O [compound 77],L (50% or less control value),L (50% or less control value),H (more than 50% control value),L (50% or less control value),H (more than 50% control value),H (more than 50% control value),H (more than 50% control value),L (50% or less control value),–,–,–,–,–,–,–,–,–
CCOC(C)(CC)c1cc(Br)c(=O)n(CC)c1-c1c(F)cc(F)cc1F (centres unmarked) [compound 484],–,–,–,–,–,–,–,–,H (more than 50% control value),H (more than 50% control value),L (50% or less control value),H (more than 50% control value),H (more than 50% control value),H (more than 50% control value),H (more than 50% control value),L (50% or less control value),–
CCn1c(-c2c(F)cc(F)cc2F)c(C(C)(O)C(C)C)cc(Cl)c1=O (racemic) [compound 106],H (more than 50% control value),H (more than 50% control value),H (more than 50% control value),H (more than 50% control value),H (more than 50% control value),H (more than 50% control value),H (more than 50% control value),H (more than 50% control value),–,–,–,–,–,–,–,–,–
CCCc1cc(I)c(=O)n(CC(F)F)c1-c1c(F)cccc1F [compound 494],–,–,–,–,–,–,–,–,H (more than 50% control value),H (more than 50% control value),H (more than 50% control value),H (more than 50% control value),H (more than 50% control value),H (more than 50% control value),H (more than 50% control value),L (50% or less control value),–
CCn1c(-c2c(F)cc(F)cc2F)c(CC(C)C)cc(Cl)c1=O [compound 41],H (more than 50% control value),H (more than 50% control value),H (more than 50% control value),H (more than 50% control value),H (more than 50% control value),H (more than 50% control value),H (more than 50% control value),L (50% or less control value),–,–,–,–,–,–,–,–,–
CCCc1cc(Br)c(=O)n(CC)c1-c1ccc(OC)cc1Br [compound 382],–,–,–,–,–,–,–,–,H (more than 50% control value),H (more than 50% control value),H (more than 50% control value),H (more than 50% control value),L (50% or less control value),H (more than 50% control value),H (more than 50% control value),H (more than 50% control value),–
